O=C(Cc1ccc(/C=C/C(=O)c2ncc[nH]2)cc1)Nc1cc(C(F)(F)F)cc(C(F)(F)F)c1 [Compound 37, (E)-2-(4-(3-(1H-imidazol-2-yl)-3-oxoprop-1-en-1-yl)phenyl)-N-(3,5-bis(trifluoromethyl)phenyl) acetamide]
melting point: 243 °C

COc1ccc(NC(=O)Cc2ccc(/C=C/C(=O)c3ncc[nH]3)cc2)cc1 [Compound 19, (E)-2-(4-(3-(1H-imidazol-2-yl)-3-oxoprop-1-en-1-yl)phenyl)-N-(4-methoxyphenyl) acetamide]
melting point: 224 to 226 °C

Reference: US11098038B2, “Imidazole-based anticancer agents and derivatives thereof, and methods of making and using same” (The University of Toledo, priority 2017, dated 2021)
